Measurements reported in US20250161476A1 (REGENERON PHARMACEUTICALS, INC., priority 2020, published 2025).
Where a SMILES comes first, the peptide text is derived from it. [ ]: non-standard residue; d: D form. The star is where a group is joined. Bip(2'-Et,4'-O(CH2)4NH2) = CCc1cc(OCCCCN)ccc1-c1ccc(C[C@H](N)C(=O)O)cc1; Nva(5-(3,5-Me2Ph)) = Cc1cc(C)cc(CCC[C@H](N)C(=O)O)c1; Ala(1H-tetrazol-5-yl) = N[C@@H](Cc1nnn[nH]1)C(=O)O; X5 = C[C@]1(C(=O)*)CCN(CCc2cnc[nH]2)C1=O; αMePhe(2-F) = C[C@](N)(Cc1ccccc1F)C(=O)O; X3 = CC(C)(C(=O)*)c1ccn[nH]1; X2 = CC(C)(C(N)=O)C(=O)*; X4 = CC(C)(C(=O)O)C(=O)*

Columns and labels:
[1] = Plasma stability of payloads and linker-payloads, human plasma; type: in vitro ADME; conditions: for Human plasma stability assay T½: tested for 1 day (A); for half-life at 2 µM: human, pooled plasma, pH 7.4, payload properties table, species not given, read-out: Plasma stability t½ (converted)
Experimental: The plasma stability of payloads and linker payloads of the disclosure were measured. For the assay, pooled frozen plasma (human, mouse or monkey) was thawed in cold water or a 37° C. water bath prior to experiment. Plasma was centrifuged at 4000 rpm for 5 min if any clots were observed, they were subsequently removed. If required, the pH was adjusted to 7.4±0.1. For the preparation of compounds and positive controls, a 1 mM intermediate solution was prepared by diluting 10 μL of their stock solution with 90 μL DMSO; a 1 mM intermediate solution of the positive control (Propantheline) was prepared by diluting 10 μL of its stock solution with 90 μL ultrapure water. […] 98 μL of plasma was spiked with 2 μL of dosing solution (100 μM) to achieve the final concentration of 2 μM in duplicate. Samples were then incubated at 37° C. in a water bath. […] At each time point, 400 μL of stop solution (200 ng/mL tolbutamide plus 200 ng/mL labetalol in 50% ACN/MeOH) was added to precipitate protein and mixed thoroughly. Sample plates were then centrifuged at 4,000 rpm for 10 min. An aliquot of supernatant (50 μL) was transferred from each well and mixed with 100 μL ultra-pure water. The samples were then shaken at 800 rpm for approximately 10 min before submitting for LC-MS/MS analysis.

[2] = biological target: human GLP1R (Homo sapiens (Human), UniProt P43220); test: cAMP responsive luciferase reporter assay, HEK293/CRE-Luc/hGLP1R cells; type: cell-based; conditions: for HEK293/CRE-LUC/hGLP1R S/N: highest RLU / RLU of untreated wells; for HEK293/CRE-LUC/hGLP1R Relative Potency (% P8 EC50) / HEK293/CRE-LUC/hGLP1R Relative Signal:Noise (% P8): relative to P8 of the same experiment
Chain of human GLP1R (P43220 24-463): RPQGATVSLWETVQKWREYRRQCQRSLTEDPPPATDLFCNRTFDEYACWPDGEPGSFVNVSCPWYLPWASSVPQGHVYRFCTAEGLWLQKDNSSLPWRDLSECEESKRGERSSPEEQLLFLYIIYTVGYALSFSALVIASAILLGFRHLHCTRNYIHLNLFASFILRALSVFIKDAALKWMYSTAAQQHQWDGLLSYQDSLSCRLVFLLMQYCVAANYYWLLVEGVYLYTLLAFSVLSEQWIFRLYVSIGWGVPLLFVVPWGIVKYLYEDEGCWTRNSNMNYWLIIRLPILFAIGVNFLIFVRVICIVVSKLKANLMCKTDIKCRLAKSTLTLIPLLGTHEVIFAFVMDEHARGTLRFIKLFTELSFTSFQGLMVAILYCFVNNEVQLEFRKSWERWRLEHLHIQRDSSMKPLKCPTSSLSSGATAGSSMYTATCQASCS
Source text: (§1) To test the activity of GLP1R agonist payloads, GLP1R agonist linker-payloads (LPs), and anti-GLP1R antibody tethered drug conjugates (ATDCs) of the disclosure, a cell-based cAMP responsive luciferase reporter assay was developed. To generate the assay cell line, the firefly luciferase gene was placed under the control of a cAMP response element (CRE) located upstream of a minimal promoter and transfected into HEK293 cells and referred to herein as HEK293/CRE-Luc cells.
(§2) Three-fold serial dilutions of free payloads or LPs were prepared in 100% DMSO, transferred to fresh assay media, and added to the cells at a final constant DMSO concentration of 0.2%. The last well in the plate served as a blank control containing only the assay media and 0.2% DMSO (untreated well) and was plotted as a continuation of the 3-fold serial dilution. Four to six hours later, luciferase activity was determined after the addition of One-Glo™ reagent (Promega, Cat #E6130) to each well. Relative light units (RLUs) were measured on an Envision luminometer (PerkinElmer) and EC50 values were determined using a four-parameter logistic equation over a 12-point dose response curve (GraphPad Prism). The signal to noise (S/N) was determined by taking the ratio of the highest RLU on the dose response curve to the RLU in the untreated wells.
GLP1R agonist linker payloads were conjugated to anti-hGLP1R antibodies via N-terminal heavy or light chain Q tags. Several resulting anti-GLP1R antibody tethered drug conjugates (ATDCs) were tested for activity in the HEK293/CRE-Luc/hGLP1R reporter assay as described above for the free GLP1R payload and linker-payload agonists.

[3] = tested on: HEK293/CRE-Luc cells; test: cAMP responsive luciferase reporter assay, HEK293/CRE-Luc cells (no hGLP1R expression); type: cell-based, human
Source text: as §1, §2

| Structure (SMILES) | Human plasma stability assay T½ [1] | half-life at 2 µM [1] | HEK293/CRE-LUC/hGLP1R S/N [2] | HEK293/CRE-LUC/hGLP1R Relative Potency (% P8 EC50) [2] | HEK293/CRE-LUC/hGLP1R Relative Signal:Noise (% P8) [2] | EC50 [3] | HEK293/CRE-LUC S/N [3] |
| --- | --- | --- | --- | --- | --- | --- | --- |
| CCc1cc(OCCCCN)ccc1-c1ccc(C[C@H](NC(=O)[C@H](CC(=O)O)NC(=O)[C@H](CO)NC(=O)[C@@H](NC(=O)[C@](C)(Cc2ccccc2F)NC(=O)[C@@H](NC(=O)CNC(=O)[C@H](Cc2nn[nH]n2)NC(=O)C(C)(C)C(=O)O)[C@@H](C)O)[C@@H](C)O)C(=O)N[C@@H](CCCc2cc(C)cc(C)c2)C(N)=O)cc1 [P3] (X4-[Ala(1H-tetrazol-5-yl)]GT[αMePhe(2-F)]TSD[Bip(2'-Et,4'-O(CH2)4NH2)][Nva(5-(3,5-Me2Ph))]-NH2) | >57.81 h | > 2.41 days | 46.3 | 0.3% | 70.3% | > 200 nM | 1.2 |
| CCc1cc(OCCCCN)ccc1-c1ccc(C[C@H](NC(=O)[C@H](CC(=O)O)NC(=O)[C@H](CO)NC(=O)[C@@H](NC(=O)[C@](C)(Cc2ccccc2F)NC(=O)[C@@H](NC(=O)CNC(=O)[C@H](Cc2nn[nH]n2)NC(=O)C(C)(C)C(N)=O)[C@@H](C)O)[C@@H](C)O)C(=O)N[C@@H](CCCc2cc(C)cc(C)c2)C(N)=O)cc1 [P4] (X2-[Ala(1H-tetrazol-5-yl)]GT[αMePhe(2-F)]TSD[Bip(2'-Et,4'-O(CH2)4NH2)][Nva(5-(3,5-Me2Ph))]-NH2) | >57.81 h | > 2.41 days | 66.9 | 6.3% | 101.8% | > 200 nM | 1.6 |
| CCc1cc(OCCCCN)ccc1-c1ccc(C[C@H](NC(=O)[C@H](CC(=O)O)NC(=O)[C@H](CO)NC(=O)[C@@H](NC(=O)[C@](C)(Cc2ccccc2F)NC(=O)[C@@H](NC(=O)CNC(=O)[C@H](Cc2nn[nH]n2)NC(=O)C(C)(C)c2ccn[nH]2)[C@@H](C)O)[C@@H](C)O)C(=O)N[C@@H](CCCc2cc(C)cc(C)c2)C(N)=O)cc1 [P6] (X3-[Ala(1H-tetrazol-5-yl)]GT[αMePhe(2-F)]TSD[Bip(2'-Et,4'-O(CH2)4NH2)][Nva(5-(3,5-Me2Ph))]-NH2) | >57.81 h | > 2.41 days | 60.7 | 0.9% | 92.3% | > 200 nM | 1.0 |
| CCc1cc(OCCCCN)ccc1-c1ccc(C[C@H](NC(=O)[C@H](CC(=O)O)NC(=O)[C@H](CO)NC(=O)[C@@H](NC(=O)[C@](C)(Cc2ccccc2F)NC(=O)[C@@H](NC(=O)CNC(=O)[C@H](Cc2nn[nH]n2)NC(=O)[C@@]2(C)CCN(CCc3cnc[nH]3)C2=O)[C@@H](C)O)[C@@H](C)O)C(=O)N[C@@H](CCCc2cc(C)cc(C)c2)C(N)=O)cc1 [P15-R] (X5-[Ala(1H-tetrazol-5-yl)]GT[αMePhe(2-F)]TSD[Bip(2'-Et,4'-O(CH2)4NH2)][Nva(5-(3,5-Me2Ph))]-NH2) | – | – | 67.8 | 40.3% | 103.1% | > 200 nM | 1.1 |
